This experiment addresses T1, Cbl-B (Homo sapiens, UniProt Q13191).
T1 construct: MSD-Based Assay for Degradation of Cbl-B in THP-1 Cells; endogenous in cells; host or cells: THP-1 (title) / Jurkat (protocol text)
As to the kind of experiment: MSD-based assay for degradation of Cbl-B in THP-1 cells. The class given is cell-based. As to the method: MSD-Based Assay for Degradation of Cbl-B in THP-1 Cells
Assay plates were then shaken at 600 rpm for 5 minutes, followed by incubation for 24 hours in the 37° C. TC incubator. […] Cell debris was then spun down at maximum speed (about 3200 g) for 30 min and lysates frozen in the −80° C. fridge. Meanwhile, MSD plates (L15XA-3) were coated overnight at 4° C. with 1 ug/mL capture antibody (Anti-Cbl-B antibody, 246C5a and Mouse mAB, ab54362). […] Blocking buffer was 3% Blocker A (MSD, R93BA-4) in TBST. Plates were washed 3× with 150 ul/well of 1×TBST and sample lysates (70 ul/well) then added, followed by shaking for 1 hr at RT, 600 rpm. […] Plates were again washed 3× with 150 ul/well of 1×TBST, followed by addition of Secondary Detection antibody, SULFO-TAG anti-species antibody (Anti Rabbit Antibody (R32AB-5) MSD, R32AB-1) at a final concentration of 1 ug/ml and 25 uL/well, followed by shaking for 1 hr at RT, 600 rpm. Plates were again washed 3× with 150 ul/well of 1×TBST, followed by addition of 1×MSD reading buffer (MSD, R92TC-2), 150 ul/well, diluted from 4× with water.
Compound Dmax were binned into A through D as follows: A indicates >70%, B indicates 50-70%, C indicates 30-50%, D indicates <30%.

Setting [1] is: Cbl-B degradation, Jurkat cells seeded (heading: THP-1 cells), 24 hours incubation, MSD readout.
Setting [2] is: Cbl-B degradation, Jurkat cells seeded (heading: THP-1 cells), 24 hours incubation, MSD readout, read-out: Dmax.

The structures appear in SMILES notation. Like-named read-outs stand apart in the source and are kept apart here.

T1 sequence (Q13191 whole entry): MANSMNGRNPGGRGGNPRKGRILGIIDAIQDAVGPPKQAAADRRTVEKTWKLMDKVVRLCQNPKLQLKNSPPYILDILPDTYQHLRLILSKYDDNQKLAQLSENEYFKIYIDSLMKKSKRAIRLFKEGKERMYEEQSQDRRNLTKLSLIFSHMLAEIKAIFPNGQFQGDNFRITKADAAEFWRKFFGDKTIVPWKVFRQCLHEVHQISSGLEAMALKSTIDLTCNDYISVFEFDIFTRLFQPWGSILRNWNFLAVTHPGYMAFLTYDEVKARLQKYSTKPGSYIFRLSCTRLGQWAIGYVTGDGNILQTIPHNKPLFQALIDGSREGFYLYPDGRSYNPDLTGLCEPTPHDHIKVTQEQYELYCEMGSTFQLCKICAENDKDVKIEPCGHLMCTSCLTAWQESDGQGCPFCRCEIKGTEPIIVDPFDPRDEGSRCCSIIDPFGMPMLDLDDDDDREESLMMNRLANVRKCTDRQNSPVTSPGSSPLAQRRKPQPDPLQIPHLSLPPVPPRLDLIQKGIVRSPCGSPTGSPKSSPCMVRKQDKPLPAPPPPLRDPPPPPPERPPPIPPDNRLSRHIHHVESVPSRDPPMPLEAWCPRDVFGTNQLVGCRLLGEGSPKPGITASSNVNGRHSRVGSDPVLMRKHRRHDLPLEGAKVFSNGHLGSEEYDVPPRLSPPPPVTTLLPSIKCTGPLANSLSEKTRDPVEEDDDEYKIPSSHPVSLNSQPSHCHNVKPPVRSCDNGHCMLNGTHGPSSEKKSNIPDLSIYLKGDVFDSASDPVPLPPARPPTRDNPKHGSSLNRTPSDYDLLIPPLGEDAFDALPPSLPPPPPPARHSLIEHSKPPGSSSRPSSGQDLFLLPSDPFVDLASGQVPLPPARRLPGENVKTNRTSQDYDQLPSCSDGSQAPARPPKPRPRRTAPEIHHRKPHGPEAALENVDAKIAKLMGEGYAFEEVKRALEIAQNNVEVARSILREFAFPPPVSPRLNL

As usually defined, the DC50 is the concentration at which degradation of the target reaches its halfway point. For orientation: Dmax means the greatest extent of degradation seen. `Cn1cnnc1[C@@H](c1cccc(-n2cc3c(C(F)(F)F)cc(CN4CCC(OCCOCc5ccc(COCCNc6cccc7c6C(=O)N(C6CCC(=O)NC6=O)C7=O)cc5)CC4)cn3c2=O)c1)C1CCC1` (single isomer, unassigned) [Compound 5]: the DC50 under setting [1] was above 10 µM. Under setting [2], the Dmax was below 30%.

For the molecule `Cn1cnnc1[C@H](c1cccc(-n2cc3c(C(F)(F)F)cc(CN4CCC(OCCOCc5ccc(COCCNc6cccc7c6C(=O)N(C6CCC(=O)NC6=O)C7=O)cc5)CC4)cn3c2=O)c1)C1CCC1` (single isomer, unassigned) [Compound 6], the DC50 under setting [1] fell in the range of 0.03 to 0.3 µM. The Dmax under setting [2] lay within 50 to 70%.

Regarding `Cn1cnnc1[C@@H](c1cccc(-n2cc3c(C(F)(F)F)cc(CN4CCC(N5CCN(c6ccc7c(c6)CN([C@@H]6CCC(=O)NC6=O)C7=O)CC5)CC4)cn3c2=O)c1)C1CCC1` (single isomer, unassigned) [Compound 40], under setting [1], the DC50 is 1 to 10 µM. For the same molecule, the Dmax (THP-1) is below 30%.

With `Cn1cnnc1[C@@H](c1cccc(-n2cc3c(C(F)(F)F)cc(CN4CCC(N5CCN(c6ccc7c(c6)CN([C@H]6CCC(=O)NC6=O)C7=O)CC5)CC4)cn3c2=O)c1)C1CCC1` (single isomer, unassigned) [Compound 41], the DC50 under setting [1] was in the range of 1 to 10 µM. The Dmax under setting [2] is below 30%.

Under setting [1], `Cn1cnnc1CC1(c2cccc(-n3cc4c(C(F)(F)F)cc(CN5CCC(OCCN6CCC(CN7CCN(c8ccc9c(c8)CN([C@@H]8CCC(=O)NC8=O)C9=O)CC7)CC6)CC5)cn4c3=O)c2)COC1` (single isomer, unassigned) [Compound 47] gave a DC50 of 0.3 to 1 µM. Moreover, the Dmax under setting [2] lay in the range of 50 to 70%.

Turning to `Cn1cnnc1[C@@H](c1cccc(-n2cc3c(C(F)(F)F)cc(CN4CCC(OCCN5CCC(CN6CCN(c7ccc8c(c7)CN([C@@H]7CCC(=O)NC7=O)C8=O)CC6)CC5)CC4)cn3c2=O)c1)C1CCC1` (single isomer, unassigned) [Compound 48], the DC50 under setting [1] lay in the range of 0.3 to 1 µM. Under setting [2], the Dmax was 30 to 50%.

Consider `Cn1cnnc1CC1(c2cccc(-n3cc4c(C(F)(F)F)cc(CN5CCC[C@@H](OCCN6CCC(CN7CCN(c8ccc9c(c8)CN([C@@H]8CCC(=O)NC8=O)C9=O)CC7)CC6)C5)cn4c3=O)c2)COC1` (single isomer, unassigned) [Compound 49], for which the DC50 under setting [1] lay in the range of 0.3 to 1 µM. For the same molecule, under setting [2], the Dmax is 50 to 70%.

`Cn1cnnc1CC1(c2cccc(-n3cc4c(C(F)(F)F)cc(CN5CCC[C@@H](OCCN6CCC(CN7CCN(c8ccc9c(c8)CN([C@H]8CCC(=O)NC8=O)C9=O)CC7)CC6)C5)cn4c3=O)c2)COC1` (single isomer, unassigned) [Compound 50]: the DC50 under setting [1] fell in the range of 0.03 to 0.3 µM. Besides, the Dmax under setting [2] was above 70%.

In turn, `Cn1cnnc1CC1(c2cccc(-n3cc4c(C(F)(F)F)cc(CN5CCC[C@H](OCCN6CCC(CN7CCN(c8ccc9c(c8)CN([C@@H]8CCC(=O)NC8=O)C9=O)CC7)CC6)C5)cn4c3=O)c2)COC1` (single isomer, unassigned) [Compound 51] had a DC50 under setting [1] of 0.3 to 1 µM. The maximal degradation (Dmax) under setting [2] is 50 to 70%.

Under setting [1], `Cn1cnnc1CC1(c2cccc(-n3cc4c(C(F)(F)F)cc(CN5CCC[C@H](OCCN6CCC(CN7CCN(c8ccc9c(c8)CN([C@H]8CCC(=O)NC8=O)C9=O)CC7)CC6)C5)cn4c3=O)c2)COC1` (single isomer, unassigned) [Compound 52] gave a DC50 of 0.03 to 0.3 µM. Also, the Dmax under setting [2] was above 70%.

For the molecule `Cn1cnnc1[C@@H](c1cccc(-n2cc3c(C(F)(F)F)cc(CN4CCC[C@@H](OCCN5CCC(CN6CCN(c7ccc8c(c7)CN([C@@H]7CCC(=O)NC7=O)C8=O)CC6)CC5)C4)cn3c2=O)c1)C1CCC1` (single isomer, unassigned) [Compound 53], under setting [1], the DC50 fell in the range of 1 to 10 µM. Further, the Dmax (THP-1) lay within 50 to 70%.

Under setting [1], `Cn1cnnc1[C@@H](c1cccc(-n2cc3c(C(F)(F)F)cc(CN4CCC[C@@H](OCCN5CCC(CN6CCN(c7ccc8c(c7)CN([C@H]7CCC(=O)NC7=O)C8=O)CC6)CC5)C4)cn3c2=O)c1)C1CCC1` (single isomer, unassigned) [Compound 54] returned a DC50 of 0.03 to 0.3 µM. Under setting [2], the Dmax is above 70%.

Under setting [1], `Cn1cnnc1CC1(c2cccc(-n3cc4c(C(F)(F)F)cc(CN5CCN(CCN6CCC(CN7CCN(c8ccc9c(c8)CN([C@@H]8CCC(=O)NC8=O)C9=O)CC7)CC6)CC5)cn4c3=O)c2)COC1` (single isomer, unassigned) [Compound 61] had a half-maximal degradation concentration (DC50) of 0.03 to 0.3 µM. In addition, under “THP-1”, the Dmax was 50 to 70%.

In the case of `Cn1cnnc1[C@@H](c1cccc(-n2cc3c(C(F)(F)F)cc(CN4CCN(CCN5CCC(CN6CCN(c7ccc8c(c7)CN([C@H]7CCC(=O)NC7=O)C8=O)CC6)CC5)CC4)cn3c2=O)c1)C1CCC1` (single isomer, unassigned) [Compound 64], the DC50 under setting [1] was below 0.03 µM. The Dmax under setting [2] is above 70%.

`Cn1cnnc1CC1(c2cccc(-n3cc4c(C(F)(F)F)cc(CN5CCC(OCCCN6CCN(c7ccc8c(c7)CN([C@@H]7CCC(=O)NC7=O)C8=O)CC6)CC5)cn4c3=O)c2)COC1` (single isomer, unassigned) [Compound 67] yielded a DC50 under setting [1] above 10 µM. The Dmax (THP-1) is below 30%.

`Cn1cnnc1CC1(c2cccc(-n3cc4c(C(F)(F)F)cc(CN5CCC(OCCCN6CCN(c7ccc8c(c7)CN([C@H]7CCC(=O)NC7=O)C8=O)CC6)CC5)cn4c3=O)c2)COC1` (single isomer, unassigned) [Compound 68] displayed a DC50 under setting [1] above 10 µM. Besides, the Dmax under setting [2] was below 30%.

Consider `Cn1cnnc1[C@@H](c1cccc(-n2cc3c(C(F)(F)F)cc(CN4CCC(OCCCN5CCN(c6ccc7c(c6)CN([C@@H]6CCC(=O)NC6=O)C7=O)CC5)CC4)cn3c2=O)c1)C1CCC1` (single isomer, unassigned) [Compound 71], for which the DC50 under setting [1] is above 10 µM. Also, the maximal degradation (Dmax) under setting [2] is below 30%.

On to `Cn1cnnc1[C@@H](c1cccc(-n2cc3c(C(F)(F)F)cc(CN4CCC(OCCCN5CCN(c6ccc7c(c6)CN([C@H]6CCC(=O)NC6=O)C7=O)CC5)CC4)cn3c2=O)c1)C1CCC1` (single isomer, unassigned) [Compound 72], for which the DC50 under setting [1] was above 10 µM. For the same molecule, the Dmax under setting [2] lay in the range of 30 to 50%.

With `Cn1cnnc1CC1(c2cccc(-n3cc4c(C(F)(F)F)cc(CN5CCC(OCCN6CCN(CC7CCN(c8ccc9c(c8)CN([C@@H]8CCC(=O)NC8=O)C9=O)CC7)CC6)CC5)cn4c3=O)c2)COC1` (single isomer, unassigned) [Compound 77], under setting [1], the DC50 lay in the range of 0.3 to 1 µM. The molecule also gave a Dmax (THP-1) of 30 to 50%.

In turn, `Cn1cnnc1CC1(c2cccc(-n3cc4c(C(F)(F)F)cc(CN5CCC(OCCN6CCN(CC7CCN(c8ccc9c(c8)CN([C@H]8CCC(=O)NC8=O)C9=O)CC7)CC6)CC5)cn4c3=O)c2)COC1` (single isomer, unassigned) [Compound 78] showed a DC50 under setting [1] below 0.03 µM. Moreover, the Dmax under setting [2] lay within 50 to 70%.

As to `Cn1cnnc1[C@@H](c1cccc(-n2cc3c(C(F)(F)F)cc(CN4CCC(OCCN5CCN(CC6CCN(c7ccc8c(c7)CN([C@@H]7CCC(=O)NC7=O)C8=O)CC6)CC5)CC4)cn3c2=O)c1)C1CCC1` (single isomer, unassigned) [Compound 79], the DC50 under setting [1] fell in the range of 1 to 10 µM. Further, the Dmax under setting [2] fell in the range of 30 to 50%.

For `Cn1cnnc1[C@@H](c1cccc(-n2cc3c(C(F)(F)F)cc(CN4CCC(OCCN5CCN(CC6CCN(c7ccc8c(c7)CN([C@H]7CCC(=O)NC7=O)C8=O)CC6)CC5)CC4)cn3c2=O)c1)C1CCC1` (single isomer, unassigned) [Compound 80], the DC50 under setting [1] was below 0.03 µM. Further, the Dmax under setting [2] was 50 to 70%.

`Cn1cnnc1[C@@H](c1cccc(-n2cc3c(C(F)(F)F)cc(CN4CCC[C@H](OCc5ccc(CN6CCN(c7ccc8c(c7)CN([C@@H]7CCC(=O)NC7=O)C8=O)CC6)cc5)C4)cn3c2=O)c1)C1CCC1` (single isomer, unassigned) [Compound 81] gave a DC50 under setting [1] above 10 µM.

On to `Cn1cnnc1CC1(c2cccc(-n3cc4c(C(F)(F)F)cc(CN5CCC[C@H](OCc6ccc(CN7CCN(c8ccc9c(c8)CN([C@@H]8CCC(=O)NC8=O)C9=O)CC7)cc6)C5)cn4c3=O)c2)COC1` (single isomer, unassigned) [Compound 83], for which the DC50 under setting [1] was above 10 µM. Moreover, under setting [2], the Dmax was below 30%.

As to `Cn1cnnc1CC1(c2cccc(-n3cc4c(C(F)(F)F)cc(CN5CCC[C@H](OCc6ccc(CN7CCN(c8ccc9c(c8)CN([C@H]8CCC(=O)NC8=O)C9=O)CC7)cc6)C5)cn4c3=O)c2)COC1` (single isomer, unassigned) [Compound 84], the DC50 under setting [1] was 0.03 to 0.3 µM. The maximal degradation (Dmax) under setting [2] lay within 30 to 50%.

For the molecule `Cn1cnnc1[C@@H](c1cccc(-n2cc3c(C(F)(F)F)cc(CN4CCC(CN5CCN(c6ccc7c(c6)CN([C@@H]6CCC(=O)NC6=O)C7=O)CC5)CC4)cn3c2=O)c1)C1CCC1` (single isomer, unassigned) [Compound 85], the 50% degradation concentration (DC50) under setting [1] is above 10 µM. In addition, under setting [2], the Dmax lay in the range of 30 to 50%.

`Cn1cnnc1[C@@H](c1cccc(-n2cc3c(C(F)(F)F)cc(CN4CCC(CN5CCN(c6ccc7c(c6)CN([C@H]6CCC(=O)NC6=O)C7=O)CC5)CC4)cn3c2=O)c1)C1CCC1` (single isomer, unassigned) [Compound 86] showed a half-maximal degradation concentration (DC50) under setting [1] of 1 to 10 µM. The Dmax under setting [2] lay within 30 to 50%.
